Source: ChEMBL document CHEMBL1151757, “Synthesis, radiosynthesis, and biological evaluation of fluorine-18-labeled 2beta-carbo(fluoroalkoxy)-3beta-(3'-((Z)-2-haloethenyl)phenyl)nortropanes: candidate radioligands for in vivo imaging of the serotonin transporter with positron emission tomography” (J Med Chem, 2008)

System: Medulla
Assay: Drug uptake in anesthetized cynomolgus monkey brain medulla after 45 mins postinjection
Format: ADME, organism-based, Macaca fascicularis
Details: in vivo, 0.75 h

| Compound | Drug uptake |
| --- | --- |
| O=C(OCCC[18F])C1C2CCC(CC1c1cccc(/C=C\Br)c1)N2 (stereo not drawn) | 5.8 |

System: not listed separately
Assay: Ratio of drug uptake in putamen to cerebellum in anesthetized cynomolgus monkey after 6.5 mins postinjection
Format: ADME, organism-based, Macaca fascicularis
Details: in vivo

| Compound | Ratio |
| --- | --- |
| O=C(OCCC[18F])C1C2CCC(CC1c1cccc(/C=C\Br)c1)N2 (stereo not drawn) | 0.9 |

System: not listed separately
Assay: Ratio of drug uptake in putamen to cerebellum in anesthetized cynomolgus monkey after 45 mins postinjection
Format: ADME, organism-based, Macaca fascicularis
Details: in vivo, 0.75 h

| Compound | Ratio |
| --- | --- |
| O=C(OCCC[18F])C1C2CCC(CC1c1cccc(/C=C\Br)c1)N2 (stereo not drawn) | 1.2 |

System: not listed separately
Assay: Octanol-water partition coefficient, log P at pH 7.4 by shake-flask method
Format: physicochemical
Details: not given

| Compound | logD |
| --- | --- |
| O=C(OCCC[18F])C1C2CCC(CC1c1cccc(/C=C\Br)c1)N2 (stereo not drawn) | 1.87 |

System: not listed separately
Assay: Ratio of drug uptake in putamen to cerebellum in anesthetized cynomolgus monkey after 155 mins postinjection
Format: ADME, organism-based, Macaca fascicularis
Details: in vivo

| Compound | Ratio |
| --- | --- |
| O=C(OCCC[18F])C1C2CCC(CC1c1cccc(/C=C\Br)c1)N2 (stereo not drawn) | 1.7 |

System: Medulla
Assay: Drug uptake in anesthetized cynomolgus monkey brain medulla after 225 mins postinjection
Format: ADME, organism-based, Macaca fascicularis
Details: in vivo, 3.75 h

| Compound | Drug uptake |
| --- | --- |
| O=C(OCCC[18F])C1C2CCC(CC1c1cccc(/C=C\Br)c1)N2 (stereo not drawn) | 3.64 |

System: Medulla
Assay: Drug uptake in anesthetized cynomolgus monkey brain medulla after 235 mins postinjection
Format: ADME, organism-based, Macaca fascicularis
Details: in vivo

| Compound | Drug uptake |
| --- | --- |
| O=C(OCCC[18F])C1C2CCC(CC1c1cccc(/C=C\Br)c1)N2 (stereo not drawn) | 3.34 |

System: not listed separately
Assay: Drug uptake in anesthetized cynomolgus monkey brain cerebellum after 3.5 mins postinjection
Format: ADME, organism-based, Macaca fascicularis
Details: in vivo

| Compound | Drug uptake |
| --- | --- |
| O=C(OCCC[18F])C1C2CCC(CC1c1cccc(/C=C\Br)c1)N2 (stereo not drawn) | 2.81 |

System: not listed separately
Assay: Drug uptake in anesthetized cynomolgus monkey brain cerebellum after 45 mins postinjection
Format: ADME, organism-based, Macaca fascicularis
Details: in vivo, 0.75 h

| Compound | Drug uptake |
| --- | --- |
| O=C(OCCC[18F])C1C2CCC(CC1c1cccc(/C=C\Br)c1)N2 (stereo not drawn) | 5.11 |

System: not listed separately
Assay: Drug uptake in anesthetized cynomolgus monkey brain cerebellum after 75 mins postinjection
Format: ADME, organism-based, Macaca fascicularis
Details: in vivo, 1.25 h

| Compound | Drug uptake |
| --- | --- |
| O=C(OCCC[18F])C1C2CCC(CC1c1cccc(/C=C\Br)c1)N2 (stereo not drawn) | 4.02 |

System: not listed separately
Assay: Drug uptake in anesthetized cynomolgus monkey brain cerebellum after 85 mins postinjection
Format: ADME, organism-based, Macaca fascicularis
Details: in vivo

| Compound | Drug uptake |
| --- | --- |
| O=C(OCCC[18F])C1C2CCC(CC1c1cccc(/C=C\Br)c1)N2 (stereo not drawn) | 3.83 |

System: Medulla
Assay: Drug uptake in anesthetized cynomolgus monkey brain medulla after 115 mins postinjection
Format: ADME, organism-based, Macaca fascicularis
Details: in vivo

| Compound | Drug uptake |
| --- | --- |
| O=C(OCCC[18F])C1C2CCC(CC1c1cccc(/C=C\Br)c1)N2 (stereo not drawn) | 5.07 |

System: not listed separately
Assay: Drug uptake in anesthetized cynomolgus monkey brain cerebellum after 165 mins postinjection
Format: ADME, organism-based, Macaca fascicularis
Details: in vivo, 2.75 h

| Compound | Drug uptake |
| --- | --- |
| O=C(OCCC[18F])C1C2CCC(CC1c1cccc(/C=C\Br)c1)N2 (stereo not drawn) | 2.57 |

System: not listed separately
Assay: Ratio of drug uptake in putamen to cerebellum in anesthetized cynomolgus monkey after 215 mins postinjection
Format: ADME, organism-based, Macaca fascicularis
Details: in vivo

| Compound | Ratio |
| --- | --- |
| O=C(OCCC[18F])C1C2CCC(CC1c1cccc(/C=C\Br)c1)N2 (stereo not drawn) | 1.7 |

System: Caudate
Assay: Drug uptake in anesthetized cynomolgus monkey brain caudate after 4.5 mins postinjection
Format: ADME, organism-based, Macaca fascicularis, Caudate nucleus
Details: in vivo, 0.075 h

| Compound | Drug uptake |
| --- | --- |
| O=C(OCCC[18F])C1C2CCC(CC1c1cccc(/C=C\Br)c1)N2 (stereo not drawn) | 2.17 |

System: Caudate
Assay: Drug uptake in anesthetized cynomolgus monkey brain caudate after 22.5 mins postinjection
Format: ADME, organism-based, Macaca fascicularis, Caudate nucleus
Details: in vivo, 0.375 h

| Compound | Drug uptake |
| --- | --- |
| O=C(OCCC[18F])C1C2CCC(CC1c1cccc(/C=C\Br)c1)N2 (stereo not drawn) | 4.63 |

System: Caudate
Assay: Drug uptake in anesthetized cynomolgus monkey brain caudate after 27.5 mins postinjection
Format: ADME, organism-based, Macaca fascicularis, Caudate nucleus
Details: in vivo

| Compound | Drug uptake |
| --- | --- |
| O=C(OCCC[18F])C1C2CCC(CC1c1cccc(/C=C\Br)c1)N2 (stereo not drawn) | 4.94 |

System: Caudate
Assay: Drug uptake in anesthetized cynomolgus monkey brain caudate after 115 mins postinjection
Format: ADME, organism-based, Macaca fascicularis, Caudate nucleus
Details: in vivo

| Compound | Drug uptake |
| --- | --- |
| O=C(OCCC[18F])C1C2CCC(CC1c1cccc(/C=C\Br)c1)N2 (stereo not drawn) | 4.71 |

System: Caudate
Assay: Drug uptake in anesthetized cynomolgus monkey brain caudate after 215 mins postinjection
Format: ADME, organism-based, Macaca fascicularis, Caudate nucleus
Details: in vivo

| Compound | Drug uptake |
| --- | --- |
| O=C(OCCC[18F])C1C2CCC(CC1c1cccc(/C=C\Br)c1)N2 (stereo not drawn) | 3.62 |

System: not listed separately
Assay: Ratio of drug uptake in occipital lobe to cerebellum in anesthetized cynomolgus monkey after 0.5 mins postinjection
Format: ADME, organism-based, Macaca fascicularis
Details: in vivo

| Compound | Ratio |
| --- | --- |
| O=C(OCCC[18F])C1C2CCC(CC1c1cccc(/C=C\Br)c1)N2 (stereo not drawn) | 1 |

System: Thalamus
Assay: Drug uptake in anesthetized cynomolgus monkey brain thalamus after 2.5 mins postinjection
Format: ADME, organism-based, Macaca fascicularis
Set-up: unit not given here
Details: in vivo

| Compound | Drug uptake |
| --- | --- |
| O=C(OCCC[18F])C1C2CCC(CC1c1cccc(/C=C\Br)c1)N2 (stereo not drawn) | 1.12 |

System: Putamen
Assay: Drug uptake in anesthetized cynomolgus monkey brain putamen after 12.5 mins postinjection
Format: ADME, organism-based, Macaca fascicularis
Set-up: unit not given here
Details: in vivo

| Compound | Drug uptake |
| --- | --- |
| O=C(OCCC[18F])C1C2CCC(CC1c1cccc(/C=C\Br)c1)N2 (stereo not drawn) | 5.25 |

System: Putamen
Assay: Drug uptake in anesthetized cynomolgus monkey brain putamen after 18.5 mins postinjection
Format: ADME, organism-based, Macaca fascicularis
Set-up: unit not given here
Details: in vivo

| Compound | Drug uptake |
| --- | --- |
| O=C(OCCC[18F])C1C2CCC(CC1c1cccc(/C=C\Br)c1)N2 (stereo not drawn) | 5.83 |

System: Putamen
Assay: Drug uptake in anesthetized cynomolgus monkey brain putamen after 95 mins postinjection
Format: ADME, organism-based, Macaca fascicularis
Set-up: unit not given here
Details: in vivo

| Compound | Drug uptake |
| --- | --- |
| O=C(OCCC[18F])C1C2CCC(CC1c1cccc(/C=C\Br)c1)N2 (stereo not drawn) | 5.28 |

System: Thalamus
Assay: Drug uptake in anesthetized cynomolgus monkey brain thalamus after 75 mins postinjection
Format: ADME, organism-based, Macaca fascicularis
Set-up: unit not given here
Details: in vivo, 1.25 h

| Compound | Drug uptake |
| --- | --- |
| O=C(OCCC[18F])C1C2CCC(CC1c1cccc(/C=C\Br)c1)N2 (stereo not drawn) | 5.33 |

System: Thalamus
Assay: Drug uptake in anesthetized cynomolgus monkey brain thalamus after 85 mins postinjection
Format: ADME, organism-based, Macaca fascicularis
Set-up: unit not given here
Details: in vivo

| Compound | Drug uptake |
| --- | --- |
| O=C(OCCC[18F])C1C2CCC(CC1c1cccc(/C=C\Br)c1)N2 (stereo not drawn) | 5.27 |

System: Thalamus
Assay: Drug uptake in anesthetized cynomolgus monkey brain thalamus after 155 mins postinjection
Format: ADME, organism-based, Macaca fascicularis
Set-up: unit not given here
Details: in vivo

| Compound | Drug uptake |
| --- | --- |
| O=C(OCCC[18F])C1C2CCC(CC1c1cccc(/C=C\Br)c1)N2 (stereo not drawn) | 4.27 |

System: Midbrain
Assay: Drug uptake in anesthetized cynomolgus monkey brain midbrain after 6.5 mins postinjection
Format: ADME, organism-based, Macaca fascicularis
Set-up: unit not given here
Details: in vivo

| Compound | Drug uptake |
| --- | --- |
| O=C(OCCC[18F])C1C2CCC(CC1c1cccc(/C=C\Br)c1)N2 (stereo not drawn) | 4.35 |

System: Midbrain
Assay: Drug uptake in anesthetized cynomolgus monkey brain midbrain after 12.5 mins postinjection
Format: ADME, organism-based, Macaca fascicularis
Set-up: unit not given here
Details: in vivo

| Compound | Drug uptake |
| --- | --- |
| O=C(OCCC[18F])C1C2CCC(CC1c1cccc(/C=C\Br)c1)N2 (stereo not drawn) | 5.24 |

System: Midbrain
Assay: Drug uptake in anesthetized cynomolgus monkey brain midbrain after 18.5 mins postinjection
Format: ADME, organism-based, Macaca fascicularis
Set-up: unit not given here
Details: in vivo

| Compound | Drug uptake |
| --- | --- |
| O=C(OCCC[18F])C1C2CCC(CC1c1cccc(/C=C\Br)c1)N2 (stereo not drawn) | 5.49 |

System: Midbrain
Assay: Drug uptake in anesthetized cynomolgus monkey brain midbrain after 35 mins postinjection
Format: ADME, organism-based, Macaca fascicularis
Set-up: unit not given here
Details: in vivo

| Compound | Drug uptake |
| --- | --- |
| O=C(OCCC[18F])C1C2CCC(CC1c1cccc(/C=C\Br)c1)N2 (stereo not drawn) | 6.14 |

System: Midbrain
Assay: Drug uptake in anesthetized cynomolgus monkey brain midbrain after 45 mins postinjection
Format: ADME, organism-based, Macaca fascicularis
Set-up: unit not given here
Details: in vivo, 0.75 h

| Compound | Drug uptake |
| --- | --- |
| O=C(OCCC[18F])C1C2CCC(CC1c1cccc(/C=C\Br)c1)N2 (stereo not drawn) | 6.06 |

System: Midbrain
Assay: Drug uptake in anesthetized cynomolgus monkey brain midbrain after 85 mins postinjection
Format: ADME, organism-based, Macaca fascicularis
Set-up: unit not given here
Details: in vivo

| Compound | Drug uptake |
| --- | --- |
| O=C(OCCC[18F])C1C2CCC(CC1c1cccc(/C=C\Br)c1)N2 (stereo not drawn) | 5.86 |
